Where a name gives a salt, the structure may show the parent alone. Read-outs that look alike come from different tables or passages of the source.
Experiments:
[1] = system: IL-2 secretion by human effector memory T cells (TEM); assay: Effector memory T cells IL-2 release assay; format: cell-based; details: T-cell, 24 h
Procedure: Test compound-mediated inhibition of NFκB signalling in T cells was assessed by quantification of the IL-2 secretion by human effector memory T cells (TEM) upon treatment and stimulation. Human TEM cells were isolated from buffy coats of healthy donors obtained from the French blood bank. First, peripheral blood mononuclear cells (PBMC) were purified from buffy coats diluted 1:1 with DPBS (Gibco, cat #14190-094) by Pancoll (PAN BIOTECH, cat #P04-60500) density gradient centrifugation at 400×g for 20 minutes. TEM cells were further enriched by negative immuno-magnetic cell sorting using a human CD4+ Effector Memory T Cell Isolation Kit (Miltenyi, cat #130-094-125) according to the manufacturer's instructions. Aliquots of 3×10E6 purified TEM cells were kept frozen in Cryo-SFM medium (PromoCell, cat #C-29912) in gas phase nitrogen until used. Cell purity was verified by flow cytometry analysis of 200 000 PFA-fixed cells previously labelled with monoclonal antibodies anti-CD4-PerCP-Cy5.5 (BD Pharmigen, cat #332772), anti-CD8-V500 (BD Biosciences, cat #561617), anti-CD14-Pacific Blue (Biolegend, cat #325616), anti-CD45 RA-FITC (Biolegend, cat #304106) and anti-CCR7-APC (in CD4+ Effector Memory T Cell Isolation Kit, Miltenyi, cat #130-094-125).
TEM cells were resuspended in complete RPMI medium composed of: RPMI 1640 (Gibco, cat #31870-025), 10% heat inactivated fetal bovine serum (Sigma, cat #F7524), 2 mM GlutaMAX (Gibco, cat #35050-038), 1 mM sodium pyruvate 100× (Gibco, cat #11360-039), 1% MEM non-essential amino acids solution (Gibco, cat #11140-035) and 100 U/mL penicillin, 100 µg/mL streptomycin (Sigma-Aldrich, cat #11074440001). 5,000 cells per well were plated onto flat clear bottom 384 well plates (Corning, cat #3770). 5,000 Dynabeads Human T-Activator CD3/CD28 (Gibco, cat #11132D) were added to each well for cell stimulation. Finally, 10 doses of test compound, originally prepared in DMSO by serial semi-log step dilution, were also added to cells in triplicate wells. Final DMSO concentration in wells was 0.1% in a total volume of 100 µL complete medium. Plates were incubated for 24 h at 37° C. in 5% CO2 atmosphere. After incubation, cell suspensions were centrifuged at 400×g and culture supernatants were recovered and stored at −80° C. Cell viability was assessed by flow cytometry after staining the cells with Fixable Viability Dye eFluor 780 (Invitrogen, cat #65-0865-14). IL-2 levels were determined in cell supernatants using an HTRF human IL-2 detection kit (Cisbio, cat #62HIL02PEH). IL-2 data at the different compound doses were fitted to a 4-parameter logistic curve to determine IC50 values, corresponding to the compound concentration leading to 50% reduction of the maximal IL-2 levels observed in each experiment. Viability data were analysed similarly to exclude cytotoxicity as a cause of IL-2 decrease (see Table 1).

[2] = biological target: Recombinant human PKC-theta (His-tagged 362-706) (Homo sapiens (Human), UniProt Q04759); assay: PKC-theta inhibition assay (HTRF KinEASE kit); format: biochemical; details: ATP 6.5 μM
Chain of Recombinant human PKC-theta (His-tagged 362-706) (Q04759 362-706): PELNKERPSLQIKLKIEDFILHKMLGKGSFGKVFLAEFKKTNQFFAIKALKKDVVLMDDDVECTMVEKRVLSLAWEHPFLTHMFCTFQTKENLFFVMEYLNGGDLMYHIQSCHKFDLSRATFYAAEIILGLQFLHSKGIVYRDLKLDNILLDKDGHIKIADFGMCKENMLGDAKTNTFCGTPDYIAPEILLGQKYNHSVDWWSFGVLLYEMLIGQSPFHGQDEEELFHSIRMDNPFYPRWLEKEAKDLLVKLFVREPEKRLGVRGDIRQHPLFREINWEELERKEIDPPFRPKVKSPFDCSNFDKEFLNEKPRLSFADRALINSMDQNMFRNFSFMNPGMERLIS
Procedure: (§1) PKC-theta and PKC-delta biochemical activities were measured using the PKC-theta HTRF KinEASEkit kit, according to manufacturer's instructions (Cisbio, catalogue number 61ST1PEJ). Briefly, the kinase buffer component of the kit was supplemented with 10 mM MgCl2, 1 mM DTT and 0.1% Tween 20. For the PKC-theta assay, STK substrate and ATP were added to provide a final assay concentration of 525 nM and 6.5 μM, respectively. For the PKC-delta assay, STK substrate and ATP were added to provide a final assay concentration of 243 nM and 5.7 μM, respectively. The streptavidin_XL665 and STK antibody-cryptate detection reagents were mixed according to the manufacturer's instructions. Test compounds were diluted in DMSO in a series of 10 semi-log step doses; 10 nL of each compound dose were dispensed in 384 well plates. Recombinant human PKC-theta (His-tagged 362-706) or PKC-delta (His-tagged 345-676) was diluted into kinase buffer to provide a final assay concentration of 10 ng/ml and added to the test compound for 30 minutes on ice. The reaction was started by addition of the substrate and ATP and incubated at 25° C. for 30 minutes or 20 minutes for the PKC-theta and PKC-delta assays, respectively. The detection reagents were added, and the plate was incubated in the dark for 2 hours. Fluorescence was measured on an Envision 2103 plate reader with optical setup for […] in the HTRF mode. The ratio of acceptor and donor emission signals was calculated for each well. Percent inhibition values were calculated from the HTRF ratios at different doses and fitted to a 4-parameter logistic curve to determine IC50 values (see Table 1).

[3] = biological target: Recombinant human PKC-delta (His-tagged 345-676) (Homo sapiens (Human), UniProt Q05655); assay: PKC-delta inhibition assay (HTRF KinEASE kit), PKC-theta/PKC-delta selectivity; format: biochemical; details: ratio; for PKC-theta/PKC-delta selectivity: PKC-theta over PKC-delta, HTRF assays; for PKC-theta/PKC-delta selectivity (binned): binned A to G
Chain of Recombinant human PKC-delta (His-tagged 345-676) (Q05655 345-676): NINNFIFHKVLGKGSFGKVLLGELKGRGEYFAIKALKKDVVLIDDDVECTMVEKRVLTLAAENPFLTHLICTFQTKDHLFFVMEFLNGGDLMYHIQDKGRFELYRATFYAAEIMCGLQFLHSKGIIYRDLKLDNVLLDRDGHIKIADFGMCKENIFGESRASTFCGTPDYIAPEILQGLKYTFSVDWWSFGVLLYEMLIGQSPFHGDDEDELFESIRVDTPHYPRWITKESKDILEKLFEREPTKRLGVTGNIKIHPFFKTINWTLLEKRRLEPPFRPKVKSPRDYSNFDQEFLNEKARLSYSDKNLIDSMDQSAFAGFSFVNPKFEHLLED
Procedure: as §1

[4] = human CD4+ TEM cells, CD3/CD28 bead stimulation, binned A to G, read-out: PKC-theta IL2 pIC50 (binned) (converted)
[5] = human CD4+ TEM cells, CD3/CD28 bead stimulation, read-out: PKC-theta IL2 pIC50 (converted)
[6] = binned A to H, read-out: PKC-theta HTRF pIC50 (binned) (converted)
[7] = read-out: PKC-theta HTRF pIC50 (converted)

SMILES | IC50 [1, 4] [nM] | IC50 [1, 5] [nM] | PKC-theta HTRF pIC50 [2] | IC50 [2, 6] [nM] | PKC-theta/PKC-delta selectivity [3] | PKC-theta/PKC-delta selectivity (binned) [3] | IC50 [2, 7] [nM] | IC50 ([1]; Homo sapiens, read-out: PKC-theta IL2 pIC50 (binned) (converted)) [nM] | IC50 ([1]; Homo sapiens, read-out: PKC-theta IL2 pIC50 (converted)) [nM]
CC1(C)C(=O)Nc2nccc(-c3nn(C4CCNCC4)c4c(F)cccc34)c21 [Example 32] | 100 to 316 | 100 | 8.1 | 3.16 to 10 | 13 | D (D means a ratio of between 10 and 20) | – | – | –
CC1(C)C(=O)Nc2nccc(-c3nn([C@@H]4CCNC4)c4ccccc34)c21 [Example 15] | 31.6 to 100 | 39.8 | 8.6 | 1 to 3.16 | 14 | D (D means a ratio of between 10 and 20) | – | – | –
C[C@@]1(O)C(=O)Nc2nccc(-c3nn(C4(CC#N)COC4)c4ccccc34)c21 (single isomer, unassigned) [Example 48] | 316 to 1000 | 794 | – | 100 to 316 | 33 | B (B means a ratio of between 30 and 50) | 316 | – | –
CN1CCOCC1(C)Cn1nc(-c2ccnc3c2C(C)(C)C(=O)N3)c2ccccc21 (stereo not drawn) [Example 63] | > 1000 | 1260 | 7.5 | 10 to 31.6 | 17 | D (D means a ratio of between 10 and 20) | – | – | –
CC1(O)C(=O)Nc2nccc(-c3ccn(C4CCNCC4)c3)c21 (stereo not drawn) [Example 11] | > 1000 | 1580 | 7.2 | 31.6 to 100 | 4 | F (F means a ratio of between 1 and 5) | – | – | –
CO[C@]1(C)C(=O)Nc2nccc(-c3nn([C@H]4CCNC[C@H]4F)c4ccccc34)c21 (single isomer, unassigned) [Example 91] | 100 to 316 | 126 | – | 3.16 to 10 | 19 | D (D means a ratio of between 10 and 20) | 7.94 | – | –
CC1(C)C(=O)Nc2nccc(-c3cn(C4CCNC4)c4ccccc34)c21 (stereo not drawn) [Example 10] | 316 to 1000 | 631 | 7.4 | 31.6 to 100 | 12 | D (D means a ratio of between 10 and 20) | – | – | –
CC1(C)C(=O)Nc2nccc(-c3nn([C@H]4CCNC4)c4cc(C(F)(F)F)ccc34)c21 [Example 74] | 316 to 1000 | 631 | 6.5 | 100 to 316 | 33 | B (B means a ratio of between 30 and 50) | – | – | –
O=C1Nc2nccc(-c3nn(C4(CO)CCNC4)c4cc(F)ccc34)c2C12CCCC2 (stereo not drawn) [Example 55, 4-[6-fluoro-1-[3-(hydroxymethyl)pyrrolidin-3-yl]indazol-3-yl]spiro[1H-pyrrolo[2,3-b]pyridine-3,1′-cyclopentane]-2-one dihydrochloride] | – | – | 8.2 | 3.16 to 10 | 4 | F (F means a ratio of between 1 and 5) | – | 100 to 316 | 158
CC1(C)C(=O)Nc2nccc(-c3nn(C[C@H]4COCCN4)c4ccccc34)c21 [Example 86] | > 1000 | 1260 | 7.5 | 10 to 31.6 | 26 | C (C means a ratio of between 20 and 30) | – | – | –
CNC1(C)C(=O)Nc2nccc(-c3nn(C4(CC#N)CCC4)c4ccccc34)c21 (stereo not drawn) [Example 62] | 1 to 3.16 | 1.58 | 9.5 | ≤ 1 | 3 | F (F means a ratio of between 1 and 5) | – | – | –
CC[C@@]1(C)C(=O)Nc2nccc(-c3nn([C@@H]4CCNC[C@@H]4F)c4ccccc34)c21 (single isomer, unassigned) [Example 105] | 316 to 1000 | 398 | – | 10 to 31.6 | 33 | B (B means a ratio of between 30 and 50) | 12.6 | – | –
CC1(C)C(=O)Nc2nccc(-c3nn(CC4CCNCC4)c4ccccc34)c21 [Example 30] | 31.6 to 100 | 50.1 | 8.9 | 1 to 3.16 | 14 | D (D means a ratio of between 10 and 20) | – | – | –
COC1(C)C(=O)Nc2nccc(-c3nn([C@@H]4CCNC[C@@H]4F)c4ccccc34)c21 (stereo partly drawn) [Example 61] | 31.6 to 100 | 50.1 | 8.7 | 1 to 3.16 | 16 | D (D means a ratio of between 10 and 20) | – | – | –
CC1(C)C(=O)Nc2nccc(-c3nn(C4(CC#N)CNC4)c4ccccc34)c21 [Example 46] | 100 to 316 | 158 | 8.2 | 3.16 to 10 | 3 | F (F means a ratio of between 1 and 5) | – | – | –
CC[C@]1(OC)C(=O)Nc2nccc(-c3nn(CC4(F)CCNCC4)c4ccccc34)c21 (single isomer, unassigned) [Example 89] | 31.6 to 100 | 79.4 | – | 1 to 3.16 | 32 | B (B means a ratio of between 30 and 50) | 2.51 | – | –
COC1(C)C(=O)Nc2nccc(-c3nn(CC4(F)CCCNC4)c4ccccc34)c21 (stereo not drawn) [Example 67] | 316 to 1000 | 398 | 7.5 | 31.6 to 100 | 9 | E (E means a ratio of between 5 and 10) | – | – | –
CC[C@@]1(O)C(=O)Nc2nccc(-c3nn(C4(CC#N)CCC4)c4ccccc34)c21 (single isomer, unassigned) [Example 68] | 10 to 31.6 | 10 | – | ≤ 1 | 12 | D (D means a ratio of between 10 and 20) | 0.251 | – | –
